{
  "source": "patent US5552520A",
  "about": "“Therapeutic peptide derivatives” (Biomeasure, Inc., priority 1994, dated 1996)",
  "key": {"[1]": {"system": "AR42J rat pancreas tumor cells", "assay": "Antiproliferative assay on AR42J cells", "type": "cell-based", "details": "Concentration 100 nM, AR42J Rat Pancreas Tumor Cells after 8 days", "procedure": "The purified somatostatin analogs described above were also tested for activity against rapidly proliferating cells.\n^1 Concentration 100 nM, AR42J Rat Pancreas Tumor Cells after 8 days."}, "[2]": {"system": "AR42J rat pancreas tumor cells", "assay": "Antiproliferative assay on AR42J cells", "type": "cell-based", "details": "growth curves, concentration dependence"}, "[3]": {"system": "stimulated growth hormone release", "assay": "Growth Hormone (GH) Inhibition Assay in rats (D-Ala2-GRF stimulated GH)", "type": "in vivo, male Sprague Dawley rats", "details": "s.c., 25 μg/kg", "procedure": "Groups of five male Sprague Dawley rats (each having a weight between 250-300 g) were injected s.c. with a somatostatin derivative or saline. Thirty minutes prior to the selected post-drug time periods shown in table II (2 hours, 4 hours, 6 hours, 8 hours), rats were anesthetized with Nembutal i.p. (50 mg/kg). Fifteen minutes following anesthesia, an aliquot of blood was withdrawn by cardiac puncture over heparin to measure basal GH. Additionally, a s.c. injection of D-Ala^2 -GRF (10 μg/kg) was given. Fifteen minutes later, blood was withdrawn to quantitate the stimulated GH, which was measured in plasma using a radioimmunoassay supplied by NIADDKD. The percentage of GH inhibition was calculated from differences obtained between basal and stimulated GH values.\nThe efficacy of D-Phe-c[Cys-Tyr-D-Trp-Lys-Thr-Cys]-Nal-NH2 (SEQ ID NO. 113) (BIM-23060) in inhibiting growth hormone in rats is compared with other somatostatin derivatives (BIM-23167, BIM-23179, and BIM-23181) of the invention.\nAdditional experiments were conducted on D-Phe-c[Cys-Tyr-D-Trp-Lys-Abu-Cys]-Thr-NH2, (SEQ ID NO. 112) a somatostatin analog, and BIM-23190, BIM-23195 and BIM-23197, to determine the ED50 (i.e., the concentration of each compound required to inhibit fifty percent of growth hormone release after a specified time) of the respective compound. Experiments were conducted at a dose range of between 25 μg/kg and 0.25 μg/kg."}, "[4]": {"biological_target": "T1, somatostatin receptor (Rattus norvegicus, UniProt P30680)", "T1 construct": "SRIF-14 to rat AR42J pancreas membranes; endogenous in cells; host or cells: rat AR42J pancreatic cells (membrane preparation)", "T1 sequence (P30680 whole entry)": "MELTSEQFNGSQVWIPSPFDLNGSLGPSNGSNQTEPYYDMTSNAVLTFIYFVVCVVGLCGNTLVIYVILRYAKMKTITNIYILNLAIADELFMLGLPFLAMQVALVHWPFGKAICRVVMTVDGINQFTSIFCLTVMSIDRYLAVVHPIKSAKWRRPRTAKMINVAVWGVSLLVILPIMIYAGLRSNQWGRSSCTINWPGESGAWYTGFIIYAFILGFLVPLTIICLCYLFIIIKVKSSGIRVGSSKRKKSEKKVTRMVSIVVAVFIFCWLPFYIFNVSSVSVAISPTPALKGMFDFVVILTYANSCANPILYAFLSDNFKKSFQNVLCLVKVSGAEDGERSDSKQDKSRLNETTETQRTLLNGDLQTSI", "assay": "Somatostatin binding assay: in vitro inhibition of binding of [125I-Tyr11]SRIF-14 to rat AR42J pancreas membranes", "details": "inhibition of [125I-Tyr11]SRIF-14 binding, read-out: IC50, in vitro binding affinity"}},
  "note": "Numbered stars: 1 amine (or outer) side, 2 acyl side, 3 side chain; on linkers, the order of the positions; unused ones are H or OH. Bridge positions count the residues as written; N and C are the ends. Square brackets hold non-standard residues; d marks the D form. Peptide text beside a SMILES is read from it. * marks the point of attachment. X1 = O=C1O[C@H]([C@@H](O)CO)C(OCC(=O)*)=C1OCC(O)CO; 2Nal = N[C@@H](Cc1ccc2ccccc2c1)C(=O)O; Suc = O=C(CCC(=O)[*:2])[*:1]; NHC(CH2OH)3 = OCC(CO)(CO)N*",
  "data": [
    {"molecule": "CC(C)[C@@H]1NC(=O)[C@H](CCCCN)NC(=O)[C@@H](Cc2c[nH]c3ccccc23)NC(=O)[C@H](Cc2ccc(O)cc2)NC(=O)[C@@H](NC(=O)[C@@H](Cc2ccc3ccccc3c2)NC(=O)CCCOC2=C(O)C(=O)O[C@@H]2[C@@H](O)CO)CSSC[C@@H](C(=O)N[C@H](C(N)=O)[C@@H](C)O)NC1=O", "note": "[BIM-23118]", "values": [
      {"measurement": "Cell growth (percent of control)", "setting": "[1]", "result": "61.0% of control"},
      {"measurement": "Inhibition of growth of AR42J cells (FIG. 1), in words", "setting": "[2]", "result": "the more effective of the two compounds"}
    ]},
    {"molecule": "C[C@@H](O)[C@@H]1NC(=O)[C@H](CCCCN)NC(=O)[C@@H](Cc2c[nH]c3ccccc23)NC(=O)[C@H](Cc2ccc(O)cc2)NC(=O)[C@@H](NC(=O)[C@@H](Cc2ccccc2)NC(=O)COC2=C(OCC(O)CO)C(=O)O[C@@H]2[C@@H](O)CO)CSSC[C@@H](C(=O)N[C@@H](Cc2ccc3ccccc3c2)C(N)=O)NC1=O", "note": "(stereo partly drawn) [BIM-23181] (X1-[dF]CY[dW]KTC[2Nal]-NH2; disulfide 2-7)", "values": [
      {"measurement": "Cell growth (percent of control)", "setting": "[1]", "result": "69.1% of control"},
      {"measurement": "Inhibition of stimulated growth hormone release (percentile control)", "setting": "[3]; 2 Hours", "result": 99.24, "unit": "percentile control"},
      {"measurement": "Inhibition of stimulated growth hormone release (percentile control)", "setting": "[3]; 4 Hours", "result": 77.07, "unit": "percentile control"},
      {"measurement": "Inhibition of stimulated growth hormone release (percentile control)", "setting": "[3]; 6 Hours", "result": 60.56, "unit": "percentile control"},
      {"measurement": "Inhibition of stimulated growth hormone release (percentile control)", "setting": "[3]; 8 Hours", "result": 56.12, "unit": "percentile control"}
    ]},
    {"molecule": "D-Nal-c[Cys-Tyr-D-Trp-Lys-Val-Cys]-Thr-NH2 [BIM-23014C, reference compound]", "values": [
      {"measurement": "Cell growth (percent of control)", "setting": "[1]", "result": "74.1% of control"},
      {"measurement": "Inhibition of growth of AR42J cells (FIG. 1), in words", "setting": "[2]", "result": "inhibit the growth of AR42J rat pancreas tumor cells in a concentration-dependent fashion"}
    ]},
    {"molecule": "C[C@@H](O)[C@@H]1NC(=O)[C@H](CCCCN)NC(=O)[C@@H](Cc2c[nH]c3ccccc23)NC(=O)[C@H](Cc2ccc(O)cc2)NC(=O)[C@@H](NC(=O)[C@@H](Cc2ccccc2)NC(=O)CCC(=O)NC(CO)(CO)CO)CSSC[C@@H](C(=O)N[C@@H](Cc2ccc3ccccc3c2)C(N)=O)NC1=O", "note": "[BIM-23167, (HO-CH2)3 -C-NH-CO-(CH2)2 -CO-D-Phe-c[Cys-Tyr-D-Trp-Lys-Thr-Cys]-Nal-NH2] ({NHC(CH2OH)3-Suc}-[dF]CY[dW]KTC[2Nal]-NH2; disulfide 2-7)", "values": [
      {"measurement": "Cell growth (percent of control)", "setting": "[1]", "result": "60.2% of control"},
      {"measurement": "Inhibition of stimulated growth hormone release (percentile control)", "setting": "[3]; 2 Hours", "result": 92.67, "unit": "percentile control"},
      {"measurement": "Inhibition of stimulated growth hormone release (percentile control)", "setting": "[3]; 4 Hours", "result": 79.54, "unit": "percentile control"},
      {"measurement": "Inhibition of stimulated growth hormone release (percentile control)", "setting": "[3]; 6 Hours", "result": 59.72, "unit": "percentile control"},
      {"measurement": "Inhibition of stimulated growth hormone release (percentile control)", "setting": "[3]; 8 Hours", "result": 50.14, "unit": "percentile control"},
      {"measurement": "IC50", "setting": "[4]", "result": 0.09, "unit": "nM"}
    ]}
  ]
}
